In data set [1] the test system is Mycobacterium tuberculosis. The experiment in a line: Antitubercular activity against Mycobacterium tuberculosis H37Rv. The class given is functional.
A short description of data set [2]: Cytotoxicity against African green monkey Vero cells assessed as reduction in cell viability after 72 hrs by MTT assay. Particulars: chlorocebus sabaeus, Vero cells. Format: cell-based. (In general: Tetrazolium dyes change colour on reduction, which living cells bring about.)
Data set [3] is described as follows: Selectivity index, ratio of CC50 for African green monkey Vero cells to MIC for Mycobacterium tuberculosis H37Rv. The class given is toxicity. Particulars: read-out: Selectivity Index.
The test system of data set [4] is Staphylococcus epidermidis. As to the kind of experiment: Antibacterial activity against methicillin-sensitive Staphylococcus epidermidis. Format: functional.
In data set [5] the test system is Staphylococcus epidermidis. The experiment in a line: Antibacterial activity against methicillin-resistant Staphylococcus epidermidis. Format: functional.
Data set [6] relates to Staphylococcus aureus. As to the kind of experiment: Antibacterial activity against methicillin-sensitive Staphylococcus aureus. Format: functional.
Data set [7] relates to Staphylococcus aureus. The experiment in a line: Antibacterial activity against methicillin-resistant Staphylococcus aureus. Format: functional.
Another data set concerns Enterococcus faecalis. As to the kind of experiment: Antibacterial activity against Enterococcus faecalis. The class given is functional.
Another data set deals with Enterococcus faecium. The experiment in a line: Antibacterial activity against Enterococcus faecium. Format: functional.
In a further data set the test system is Escherichia coli. As to the kind of experiment: Antibacterial activity against Escherichia coli. Format: functional.
The next data set relates to Klebsiella pneumoniae. As to the kind of experiment: Antibacterial activity against Klebsiella pneumoniae. Format: functional.
A further data set has as its system Pseudomonas aeruginosa. As to the kind of experiment: Antibacterial activity against Pseudomonas aeruginosa ATCC 27853. Format: functional.
Data set [8] concerns Acinetobacter calcoaceticus. As to the kind of experiment: Antibacterial activity against Acinetobacter calcoaceticus. The class given is functional.
For a further data set, the system named is Enterobacter cloacae. The experiment in a line: Antibacterial activity against Enterobacter cloacae. The class given is functional.
In the next data set the test system is Klebsiella aerogenes. As to the kind of experiment: Antibacterial activity against Enterobacter aerogenes. The class given is functional.
For a further data set, the system named is Proteus mirabilis. The experiment in a line: Antibacterial activity against Proteus mirabilis. The class given is functional.
The next data set deals with Citrobacter freundii. As to the kind of experiment: Antibacterial activity against Citrobacter freundii. The class given is functional.

Molecules are shown by their SMILES. ≈ marks a conversion by molar mass, not a printed value.

The MIC is the smallest concentration in the dilution series that meets the test's criterion for growth inhibition. As a reminder, the CC50 is the concentration giving 50% cytotoxicity. What is called MIC90 is an inhibitory concentration at the 90% level, which refers to growth in some studies and to a panel of isolates in others. In turn, `CCOC(=O)c1c(-c2ccc(OC)cc2)oc2ccc(OCCCCCCN3C(=O)/C(=N\OC)c4cc(F)ccc43)cc12` displayed a minimal inhibitory concentration (MIC) in data set [1] of less than 0.016 µg/mL. Further, the CC50 at 72 h in [2] amounted to 16 µg/mL (≈ 27.2 µM). Besides, in data set [3], the selectivity ratio is more than 1000. Further, the MIC90 amounted to 0.5 µg/mL (≈ 0.849 µM) in data set [4]; 16 µg/mL (≈ 27.2 µM) in data set [5]; 4 µg/mL (≈ 6.8 µM) with Staphylococcus aureus [6]; 4 µg/mL (≈ 6.8 µM) with Staphylococcus aureus [7]; 2 µg/mL (≈ 3.4 µM) against Enterococcus faecalis; 16 µg/mL (≈ 27.2 µM) in the data set with Enterococcus faecium. Moreover, the MIC90 in the data set with Escherichia coli is 0.25 µg/mL (≈ 0.425 µM); against Klebsiella pneumoniae, 2 µg/mL (≈ 3.4 µM); against Pseudomonas aeruginosa, 8 µg/mL (≈ 13.6 µM); in data set [8] it was 4 µg/mL (≈ 6.8 µM); in the data set on Enterobacter cloacae, 0.5 µg/mL (≈ 0.849 µM); in the data set on Klebsiella aerogenes it was 0.5 µg/mL (≈ 0.849 µM). The MIC90 is 0.125 µg/mL (≈ 0.212 µM) in the data set on Proteus mirabilis and 0.5 µg/mL (≈ 0.849 µM) with Citrobacter freundii.
Turning to `CCO/N=C1\C(=O)N(CCCCCOc2ccc3oc(-c4ccc(OC)cc4)c(C(=O)OCC)c3c2)c2ccc(F)cc21`, the minimum inhibitory concentration (MIC) in data set [1] came to 0.031 µg/mL (≈ 0.0527 µM). Moreover, the CC50 at 72 h in [2] stood at 32 µg/mL (≈ 54.4 µM). In data set [3], the selectivity ratio was 1030. Besides, the MIC90 in data set [4] was found to be 1 µg/mL (≈ 1.7 µM); in [5], 4 µg/mL (≈ 6.8 µM); in the data set on Staphylococcus aureus [6], 8 µg/mL (≈ 13.6 µM); with Staphylococcus aureus [7] it was 4 µg/mL (≈ 6.8 µM); against Enterococcus faecalis, 4 µg/mL (≈ 6.8 µM); with Enterococcus faecium it was 32 µg/mL (≈ 54.4 µM). The MIC90 with Escherichia coli is 0.125 µg/mL (≈ 0.212 µM); with Klebsiella pneumoniae, 4 µg/mL (≈ 6.8 µM); against Pseudomonas aeruginosa, 4 µg/mL (≈ 6.8 µM); in data set [8], 8 µg/mL (≈ 13.6 µM); against Enterobacter cloacae, 0.25 µg/mL (≈ 0.425 µM); in the data set with Klebsiella aerogenes, 0.5 µg/mL (≈ 0.849 µM). Moreover, the MIC90 is 0.25 µg/mL (≈ 0.425 µM) in the data set on Proteus mirabilis and 0.125 µg/mL (≈ 0.212 µM) with Citrobacter freundii.
Turning to `CCO/N=C1\C(=O)N(CCCOc2ccc3oc(-c4ccc(OC)cc4)c(C(=O)OCC)c3c2)c2ccccc21`, the MIC in data set [1] was less than 0.016 µg/mL. In data set [2], the CC50 at 72 h was 16 µg/mL (≈ 29.5 µM). Also, the selectivity ratio in [3] is more than 8000. Besides, the MIC90 is 1 µg/mL (≈ 1.84 µM) in data set [4]; 8 µg/mL (≈ 14.7 µM) in data set [5]; 8 µg/mL (≈ 14.7 µM) against Staphylococcus aureus [6]; 4 µg/mL (≈ 7.37 µM) in the data set with Staphylococcus aureus [7]; 4 µg/mL (≈ 7.37 µM) against Enterococcus faecalis; 16 µg/mL (≈ 29.5 µM) against Enterococcus faecium. The MIC90 against Escherichia coli was 0.5 µg/mL (≈ 0.922 µM); against Klebsiella pneumoniae, 1 µg/mL (≈ 1.84 µM); against Pseudomonas aeruginosa, 4 µg/mL (≈ 7.37 µM); in [8], 2 µg/mL (≈ 3.69 µM); against Enterobacter cloacae, 4 µg/mL (≈ 7.37 µM); in the data set on Klebsiella aerogenes, 1 µg/mL (≈ 1.84 µM). Also, the MIC90 with Proteus mirabilis and in the data set on Citrobacter freundii was 2 µg/mL (≈ 3.69 µM) in each case.
In turn, `CCOC(=O)c1c(-c2ccc(OC)cc2)oc2ccc(OCCCCCN3C(=O)/C(=N\O)c4ccccc43)cc12` registered an MIC in [1] of 0.062 µg/mL (≈ 0.114 µM). In data set [2], the CC50 at 72 h came to 64 µg/mL (≈ 118 µM). Also, in data set [3], the selectivity ratio is 1030. Moreover, the MIC90 was determined as 0.25 µg/mL (≈ 0.461 µM) in [4]; 4 µg/mL (≈ 7.37 µM) in data set [5]; 2 µg/mL (≈ 3.69 µM) against Staphylococcus aureus [6]; 2 µg/mL (≈ 3.69 µM) against Staphylococcus aureus [7]; 2 µg/mL (≈ 3.69 µM) with Enterococcus faecalis; 8 µg/mL (≈ 14.7 µM) in the data set on Enterococcus faecium. The MIC90 in the data set on Escherichia coli is 0.25 µg/mL (≈ 0.461 µM); with Klebsiella pneumoniae, 1 µg/mL (≈ 1.84 µM); against Pseudomonas aeruginosa, 4 µg/mL (≈ 7.37 µM); in data set [8], 2 µg/mL (≈ 3.69 µM); against Enterobacter cloacae, 1 µg/mL (≈ 1.84 µM); against Klebsiella aerogenes, 0.5 µg/mL (≈ 0.922 µM). Further, the MIC90 with Proteus mirabilis turned out to be 0.25 µg/mL (≈ 0.461 µM); with Citrobacter freundii it was 0.5 µg/mL (≈ 0.922 µM).
The molecule `CCOC(=O)c1c(-c2ccccc2)oc2ccc(OCCCN3C(=O)/C(=N\OC)c4ccccc43)cc12` displayed an MIC in [1] of less than 0.016 µg/mL. The CC50 at 72 h in [2] came out at 64 µg/mL (≈ 128 µM). In addition, the selectivity ratio in [3] was more than 2000. In addition, the MIC90 in data set [4] was 0.125 µg/mL (≈ 0.251 µM); in data set [5], 0.5 µg/mL (≈ 1 µM); with Staphylococcus aureus [6], 8 µg/mL (≈ 16 µM); in the data set with Staphylococcus aureus [7], 2 µg/mL (≈ 4.01 µM); against Enterococcus faecalis it was 1 µg/mL (≈ 2.01 µM); in the data set with Enterococcus faecium, 8 µg/mL (≈ 16 µM). The MIC90 in the data set with Escherichia coli was 0.25 µg/mL (≈ 0.501 µM); in the data set on Klebsiella pneumoniae, 0.5 µg/mL (≈ 1 µM); with Pseudomonas aeruginosa, 1 µg/mL (≈ 2.01 µM); in data set [8], 1 µg/mL (≈ 2.01 µM); in the data set on Enterobacter cloacae it was 2 µg/mL (≈ 4.01 µM); in the data set on Klebsiella aerogenes, 0.25 µg/mL (≈ 0.501 µM). Moreover, the MIC90 against Proteus mirabilis and against Citrobacter freundii was 0.5 µg/mL (≈ 1 µM) throughout.
`CCOC(=O)c1c(-c2ccc(OC)cc2)oc2ccc(OCCCCCCN3C(=O)/C(=N\OC)c4ccccc43)cc12` displayed an MIC in data set [1] of less than 0.016 µg/mL. Also, the CC50 at 72 h in data set [2] was 32 µg/mL (≈ 56.1 µM). In addition, the selectivity ratio in data set [3] is more than 2000. The MIC90 in data set [4] is 0.5 µg/mL (≈ 0.876 µM); in data set [5], 8 µg/mL (≈ 14 µM); in the data set with Staphylococcus aureus [6], 2 µg/mL (≈ 3.5 µM); in the data set with Staphylococcus aureus [7], 2 µg/mL (≈ 3.5 µM); in the data set with Enterococcus faecalis, 4 µg/mL (≈ 7.01 µM); against Enterococcus faecium, 16 µg/mL (≈ 28 µM). In addition, the MIC90 was 0.125 µg/mL (≈ 0.219 µM) with Escherichia coli; 4 µg/mL (≈ 7.01 µM) against Klebsiella pneumoniae; 2 µg/mL (≈ 3.5 µM) in the data set with Pseudomonas aeruginosa; 4 µg/mL (≈ 7.01 µM) in data set [8]; 0.125 µg/mL (≈ 0.219 µM) against Enterobacter cloacae; 0.25 µg/mL (≈ 0.438 µM) against Klebsiella aerogenes. For the same molecule, the MIC90 in the data set on Proteus mirabilis and against Citrobacter freundii was 0.125 µg/mL (≈ 0.219 µM) in each case.

The values above are taken from ChEMBL document CHEMBL4400520, “Benzofuran-isatin-imine hybrids tethered via different length alkyl linkers: Design, synthesis and in vitro evaluation of anti-tubercular and anti-bacterial activities as well as cytotoxicity” (Eur J Med Chem, 2019).
